Converted amounts (≈) assume the structure as drawn.
Test system: Human immunodeficiency virus 1
Assay: Antiviral activity against HIV1 assessed as protection against virus-induced cytopathogenicity
Format: functional, organism-based

## C=C(C)[C@H](CC=C(C)C)C[C@@]12C[C@@H](CC=C(C)C)C(C)(C)[C@@](CC=C(C)C)(C(=O)C(C(=O)c3ccc(O)c(O)c3)=C1O)C2=O [GUTTIFERONE F]
  EC50: 23 µg/mL (≈ 38.2 µM)
